US10597388B2, “Pyridazinone herbicides” (FMC CORPORATION, priority 2014, dated 2020)

Legend:
Test in all cases: Test C greenhouse herbicide test, pre- and postemergence
Format in all cases: in vivo
[1] = tested on: galium (catchweed bedstraw, Galium aparine)
In short: (§1)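 Greenhouse pots; pre-em on seeded loam:sand blend, post-em on 2–18 cm plants (1–4 leaf) in sphagnum peat/vermiculite medium. Formulation: non-phytotoxic solvent + surfactant. Read-out: visual % control (0–100) vs controls at 13–15 d.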

[2] = tested on: blackgrass (Alopecurus myosuroides)
In short: as §1

[3] = tested on: lambsquarters (Chenopodium album)
In short: as §1

[4] = tested on: wheat (winter wheat, Triticum aestivum)
In short: as §1

[5] = tested on: oilseed rape (Brassica napus)
In short: as §1

soybean (Glycine max) = tested on: soybean (Glycine max)
In short: as §1

[6] = tested on: morningglory (Ipomoea coccinea)
In short: as §1

[7] = tested on: velvetleaf (Abutilon theophrasti)
In short: as §1

[8] = tested on: pigweed (Amaranthus retroflexus)
In short: as §1

[9] = tested on: foxtail, giant (giant foxtail, Setaria faberii)
In short: as §1

[10] = tested on: nutsedge, yellow (yellow nutsedge, Cyperus esculentus)
In short: as §1

[11] = tested on: johnsongrass (Sorghum halepense)
In short: as §1

[12] = tested on: barnyardgrass (Echinochloa crus-galli)
In short: as §1

[13] = tested on: ragweed (common ragweed, Ambrosia elatior)
In short: as §1

[14] = tested on: crabgrass, large (large crabgrass, Digitaria sanguinalis)
In short: as §1

[15] = tested on: waterhemp (common waterhemp, Amaranthus rudis)
In short: as §1

[16] = Postemergence, 31 g ai/ha, scale 0 to 100 (0 no effect, 100 complete control)
[17] = Postemergence, 125 g ai/ha, scale 0 to 100, 0 is no effect, 100 is complete control
[18] = Postemergence, 250 g ai/ha, scale 0 to 100, 0 no effect, 100 complete control, 13 to 15 d
[19] = Preemergence, 31 g ai/ha, scale 0 to 100, 0 is no effect, 100 is complete control
[20] = Preemergence, 62 g ai/ha, scale 0 to 100, 0 is no effect, 100 is complete control
[21] = Preemergence, 125 g ai/ha, scale 0 to 100, 0 is no effect, 100 is complete control
[22] = Preemergence, 250 g ai/ha, scale 0 to 100 (0 no effect, 100 complete control)
[23] = postemergence, 62 g ai/ha, scale 0 to 100, 0 no effect, 100 complete control

## Cc1nn(C)c(=O)c(-c2c(C)sc3ccc(Cl)cc23)c1O [Compound 104]
[1]; [16]
  Plant response rating, Galium: 95
[1]; [17]
  Plant response rating, Galium: 98
[1]; [18]
  Plant response rating, Galium: 98
[1]; [19]
  Plant response rating, Galium: 90
[1]; [20]
  Plant response rating, Galium: 85
[1]; [21]
  Plant response rating, Galium: 90
[1]; [22]
  Galium plant response rating: 98
[2]; [16]
  Plant response rating, Blackgrass: 15
[2]; [17]
  Plant response rating, Blackgrass: 50
[2]; [18]
  Plant response rating, Blackgrass: 55
[2]; [19]
  Plant response rating, Blackgrass: 5
[2]; [20]
  Plant response rating, Blackgrass: 15
[2]; [21]
  Plant response rating, Blackgrass: 30
[2]; [22]
  Blackgrass plant response rating: 60
[2]; [23]
  Blackgrass plant response rating: 35
[3]; [16]
  Plant response rating, Lambsquarters: 90
[3]; [17]
  Plant response rating, Lambsquarters: 100
[3]; [18]
  Plant response rating, Lambsquarters: 100
[3]; [19]
  Plant response rating, Lambsquarters: 85
[3]; [20]
  Plant response rating, Lambsquarters: 85
[3]; [21]
  Plant response rating, Lambsquarters: 95
[3]; [22]
  Lambsquarters plant response rating: 95
[4]; [16]
  Plant response rating, Wheat: 0
[4]; [17]
  Plant response rating, Wheat: 5
[4]; [18]
  Plant response rating, Wheat: 10
[4]; [19]
  Plant response rating, Wheat: 5
[4]; [20]
  Plant response rating, Wheat: 5
[4]; [21]
  Plant response rating, Wheat: 5
[4]; [22]
  Wheat plant response rating: 0
[5]; [16]
  Plant response rating, Oilseed Rape: 85
[5]; [17]
  Plant response rating, Oilseed Rape: 95
[5]; [18]
  Plant response rating, Oilseed Rape: 98
[5]; [19]
  Plant response rating, Oilseed Rape: 5
[5]; [20]
  Plant response rating, Oilseed Rape: 30
[5]; [21]
  Plant response rating, Oilseed Rape: 85
[5]; [22]
  Oilseed Rape plant response rating: 95
Soybean (Glycine max); [16]
  Plant response rating, Soybean: 0
Soybean (Glycine max); [17]
  Plant response rating, Soybean: 10
Soybean (Glycine max); [18]
  Plant response rating, Soybean: 10
Soybean (Glycine max); [19]
  Plant response rating, Soybean: 0
Soybean (Glycine max); [20]
  Plant response rating, Soybean: 0
Soybean (Glycine max); [21]
  Plant response rating, Soybean: 0
Soybean (Glycine max); [22]
  Soybean plant response rating: 0
[6]; [16]
  Plant response rating, Morningglory: 98
[6]; [17]
  Plant response rating, Morningglory: 100
[6]; [18]
  Plant response rating, Morningglory: 100
[6]; [19]
  Plant response rating, Morningglory: 80
[6]; [20]
  Plant response rating, Morningglory: 95
[6]; [21]
  Plant response rating, Morningglory: 100
[6]; [22]
  Morningglory plant response rating: 98
[7]; [16]
  Plant response rating, Velvetleaf: 50
[7]; [17]
  Plant response rating, Velvetleaf: 98
[7]; [18]
  Plant response rating, Velvetleaf: 90
[7]; [19]
  Plant response rating, Velvetleaf: 40
[7]; [20]
  Plant response rating, Velvetleaf: 80
[7]; [21]
  Plant response rating, Velvetleaf: 90
[7]; [22]
  Velvetleaf plant response rating: 90
[8]; [16]
  Plant response rating, Pigweed: 95
[8]; [17]
  Plant response rating, Pigweed: 100
[8]; [18]
  Plant response rating, Pigweed: 100
[8]; [19]
  Plant response rating, Pigweed: 100
[8]; [20]
  Plant response rating, Pigweed: 100
[8]; [21]
  Plant response rating, Pigweed: 100
[8]; [22]
  Pigweed plant response rating: 100
[9]; [16]
  Plant response rating, Foxtail, Giant: 50
[9]; [17]
  Plant response rating, Foxtail, Giant: 75
[9]; [18]
  Plant response rating, Foxtail, Giant: 85
[9]; [19]
  Plant response rating, Foxtail, Giant: 75
[9]; [20]
  Plant response rating, Foxtail, Giant: 85
[9]; [21]
  Plant response rating, Foxtail, Giant: 75
[9]; [22]
  Foxtail, Giant plant response rating: 100
[10]; [16]
  Plant response rating, Nutsedge, Yellow: 55
[10]; [17]
  Plant response rating, Nutsedge, Yellow: 60
[10]; [18]
  Plant response rating, Nutsedge, Yellow: 75
[10]; [19]
  Plant response rating, Nutsedge, Yellow: 30
[10]; [20]
  Plant response rating, Nutsedge, Yellow: 45
[10]; [21]
  Plant response rating, Nutsedge, Yellow: 75
[10]; [22]
  Nutsedge, Yellow plant response rating: 85
[11]; [16]
  Plant response rating, Johnsongrass: 10
[11]; [17]
  Plant response rating, Johnsongrass: 5
[11]; [18]
  Plant response rating, Johnsongrass: 5
[11]; [19]
  Plant response rating, Johnsongrass: 10
[11]; [20]
  Plant response rating, Johnsongrass: 20
[11]; [21]
  Plant response rating, Johnsongrass: 20
[11]; [22]
  Johnsongrass plant response rating: 30
[12]; [16]
  Plant response rating, Barnyardgrass: 20
[12]; [17]
  Plant response rating, Barnyardgrass: 45
[12]; [18]
  Plant response rating, Barnyardgrass: 55
[12]; [19]
  Plant response rating, Barnyardgrass: 10
[12]; [20]
  Plant response rating, Barnyardgrass: 25
[12]; [21]
  Plant response rating, Barnyardgrass: 40
[12]; [22]
  Barnyardgrass plant response rating: 80
[12]; [23]
  Barnyardgrass plant response rating: 35
[13]; [16]
  Plant response rating, Ragweed: 85
[13]; [17]
  Plant response rating, Ragweed: 98
[13]; [18]
  Plant response rating, Ragweed: 100
[13]; [19]
  Plant response rating, Ragweed: 85
[13]; [20]
  Plant response rating, Ragweed: 90
[13]; [21]
  Plant response rating, Ragweed: 95
[13]; [22]
  Ragweed plant response rating: 100
[14]; [16]
  Plant response rating, Crabgrass, Large: 20
[14]; [17]
  Plant response rating, Crabgrass, Large: 35
[14]; [18]
  Plant response rating, Crabgrass, Large: 55
[14]; [19]
  Plant response rating, Crabgrass, Large: 40
[14]; [20]
  Plant response rating, Crabgrass, Large: 55
[14]; [21]
  Plant response rating, Crabgrass, Large: 55
[14]; [22]
  Crabgrass, Large plant response rating: 60
[14]; [23]
  Crabgrass, Large plant response rating: 30
[15]; [16]
  Plant response rating, Waterhemp: 70
[15]; [17]
  Plant response rating, Waterhemp: 100
[15]; [18]
  Plant response rating, Waterhemp: 95
[15]; [19]
  Plant response rating, Waterhemp: 75
[15]; [20]
  Plant response rating, Waterhemp: 90
[15]; [21]
  Plant response rating, Waterhemp: 100
[15]; [22]
  Waterhemp plant response rating: 100
